± gives the standard deviation of the averaged measurements.
How the values were obtained:
Conditions in all cases: 72 h
Caco-2 [1] = assay: drug sensitivity score (DSS) for viability; higher = more toxic; extreme values may be limits of the assay
Calu-3 [2] = assay: as above
U2OS [3] = assay: as above
HepG2 [4] = assay: as above
Vero E6 [5] = assay: as above
Caco-2 [6] = assay: cell viability relative to DMSO; higher = less toxic
Calu-3 [7] = assay: as above
U2OS [8] = assay: as above
HepG2 [9] = assay: as above
Vero E6 [10] = assay: as above
Caco-2 [11] = assay: relative viability EC50 (midpoint between 100% and the lowest measured viability); higher = less toxic
Calu-3 [12] = assay: as above
U2OS [13] = assay: as above
HepG2 [14] = assay: as above
Vero E6 [15] = assay: as above

| Structure (SMILES) | drug sensitivity score (Caco-2 [1]) | drug sensitivity score (Calu-3 [2]) | drug sensitivity score (U2OS [3]) | drug sensitivity score (HepG2 [4]) | drug sensitivity score (Vero E6 [5]) | cell viability (Caco-2 [6]; 1 nM) | cell viability (Caco-2 [6]; 10 nM) | cell viability (Caco-2 [6]; 100 nM) | cell viability (Caco-2 [6]; 1000 nM) | cell viability (Caco-2 [6]; 10000 nM) | cell viability (Calu-3 [7]; 1 nM) | cell viability (Calu-3 [7]; 10 nM) | cell viability (Calu-3 [7]; 100 nM) | cell viability (Calu-3 [7]; 1000 nM) | cell viability (Calu-3 [7]; 10000 nM) | cell viability (U2OS [8]; 1 nM) | cell viability (U2OS [8]; 10 nM) | cell viability (U2OS [8]; 100 nM) | cell viability (U2OS [8]; 1000 nM) | cell viability (U2OS [8]; 10000 nM) | cell viability (HepG2 [9]; 1 nM) | cell viability (HepG2 [9]; 10 nM) | cell viability (HepG2 [9]; 100 nM) | cell viability (HepG2 [9]; 1000 nM) | cell viability (HepG2 [9]; 10000 nM) | cell viability (Vero E6 [10]; 1 nM) | cell viability (Vero E6 [10]; 10 nM) | cell viability (Vero E6 [10]; 100 nM) | cell viability (Vero E6 [10]; 1000 nM) | cell viability (Vero E6 [10]; 10000 nM) | relative viability EC50 (Caco-2 [11]) | relative viability EC50 (Calu-3 [12]) | relative viability EC50 (U2OS [13]) | relative viability EC50 (HepG2 [14]) | relative viability EC50 (Vero E6 [15]) |
| --- | --- | --- | --- | --- | --- | --- | --- | --- | --- | --- | --- | --- | --- | --- | --- | --- | --- | --- | --- | --- | --- | --- | --- | --- | --- | --- | --- | --- | --- | --- | --- | --- | --- | --- | --- |
| CC(C)[C@H](O)C(=O)N[C@@H](C)C(=O)N[C@@H]1C(=O)N(C)CCc2ccccc21 [semagacestat] | 0 | 0 | 0 | 0 | 0 | 96.2% | 107% | 98.2% | 102% | 92.6% | 95.8% | 94.8% | 94.7% | 99.8% | 98.1% | 99.9% | 100% | 94% | 96.8% | 92.3% | 99.7% | 105% | 114% | 96.3% | 92.1% | 102% | 101% | 99.9% | 100% | 99.4% | > 10 µM | > 10 µM | > 10 µM | > 10 µM | > 10 µM |
| NC(=O)CNCCC(c1ccccc1)c1ccccc1 [N20C] | 0 | 0 | 0 | 0 | 0 | 107% | 98.4% | 89.4% | 97.2% | 103% | 109% | 97.5% | 96.6% | 99.4% | 106% | 106% | 99.4% | 100% | 99.2% | 102% | 97.3% | 93.6% | 106% | 111% | 94.9% | 96.9% | 106% | 98.2% | 98.1% | 97.6% | > 10 µM | > 10 µM | > 10 µM | > 10 µM | > 10 µM |
| CC(C)[C@@H]1C(=O)N(S(C)(=O)=O)[C@@H]2CCN(C(=O)/C=C/CN3CCCCC3)[C@H]21 | 0 | 0 | 0 | 0.1 | 0 | 110% | 94.3% | 94.4% | 97.6% | 94.4% | 95.9% | 95.4% | 102% | 103% | 100% | 101% | 98.8% | 103% | 99.1% | 101% | 92.2% | 92.6% | 104% | 104% | 85.3% | 97.2% | 102% | 93.4% | 98.6% | 91.4% | > 10 µM | > 10 µM | > 10 µM | > 10 µM | > 10 µM |
| C[C@H](CCC(=O)NCCS(=O)(=O)O)[C@H]1CC[C@H]2[C@@H]3[C@H](O)C[C@@H]4C[C@H](O)CC[C@]4(C)[C@H]3C[C@H](O)[C@]12C [taurocholate] | 0 | 0 | 0 | 0 | 0 | 110% | 86.9% | 104% | 87.2% | 92.2% | 103% | 99% | 109% | 102% | 96.3% | 100% | 98.9% | 101% | 98.9% | 99.2% | 105% | 74% | 99.8% | 108% | 98.4% | 104% | 106% | 107% | 110% | 95% | > 10 µM | > 10 µM | > 10 µM | > 10 µM | > 10 µM |
| COC1(C[S@@+]([O-])c2ccccc2)CCN(CCc2c[nH]c3ccc(F)cc23)CC1 | 0 | 0 | 0 | 0 | 0 | 93.6% | 99.1% | 87.1% | 102% | 90.3% | 100% | 94.6% | 99% | 101% | 100% | 96.2% | 95.9% | 100% | 96.5% | 99.9% | 95.9% | 88.4% | 86.6% | 96.6% | 84.1% | 103% | 101% | 92.5% | 102% | 93.8% | > 10 µM | > 10 µM | > 10 µM | > 10 µM | > 10 µM |
| CC(C)NCCN(C(C)C)S(=O)(=O)c1ccc(Cl)cc1Cl [RN-1734] | 0 | 0 | 0 | 0.4 | 0 | 105% | 95.1% | 97.1% | 94.6% | 97.4% | 97.1% | 101% | 95.6% | 99.8% | 99.6% | 99.3% | 98.4% | 101% | 95.4% | 94.7% | 99.8% | 89.7% | 102% | 96.8% | 85.9% | 97% | 100% | 94.2% | 96.7% | 91.2% | > 10 µM | > 10 µM | > 10 µM | > 10 µM | > 10 µM |
| CCOC(=O)CCC(=O)O[C@H]1[C@H](O[C@@H]2[C@@H](C)[C@H](O[C@H]3C[C@@](C)(OC)[C@@H](O)[C@H](C)O3)[C@@H](C)C(=O)O[C@H](CC)[C@@](C)(O)[C@H](O)[C@@H](C)C(=O)[C@H](C)C[C@@]2(C)O)O[C@H](C)C[C@@H]1N(C)C [erythromycin-ethylsuccinate] | 0 | 0 | 0 | 0 | 0 | 87.7% | 114% | 85.5% | 100% | 99.5% | 101% | 98.5% | 100% | 101% | 96.3% | 102% | 103% | 96.8% | 106% | 100% | 97.8% | 107% | 101% | 87.5% | 101% | 112% | 94.8% | 103% | 100% | 104% | > 10 µM | > 10 µM | > 10 µM | > 10 µM | > 10 µM |
| CC(C)Cc1ccc(C(C)C(=O)O)cc1 (stereo not given) [ibuprofen] | 0 | 0 | 0 | 0 | 0 | 97.4 ± 5.4% | 98.1 ± 3.7% | 95.9 ± 2% | 103 ± 4.1% | 104 ± 3.2% | 105 ± 5.7% | 98.9 ± 6.4% | 93 ± 1.3% | 94.6 ± 8.3% | 102 ± 7.8% | 99.7 ± 3.4% | 103 ± 4.4% | 100.6 ± 0.96% | 102 ± 2.5% | 105 ± 2.5% | 110 ± 5.8% | 96.3 ± 1.8% | 104 ± 8.1% | 102 ± 5.4% | 108 ± 9.9% | 96.9 ± 0.57% | 96.9 ± 2.5% | 94.95 ± 0.071% | 92.2 ± 2.9% | 104.25 ± 0.071% | > 10 µM | > 10 µM | > 10 µM | > 10 µM | > 10 µM |
| O=C1c2cccc3c2[C@H](CCC3)CN1[C@@H]1CN2CCC1CC2 [palonosetron] | 0 | 0 | 0 | 0 | 0.5 | 105% | 97.5% | 90.8% | 96.8% | 102% | 106% | 99% | 91.3% | 100% | 98.8% | 98.9% | 97.5% | 99.5% | 100% | 94.2% | 94.4% | 90.2% | 88.6% | 96.1% | 88.9% | 99.7% | 103% | 103% | 99.3% | 82.4% | > 10 µM | > 10 µM | > 10 µM | > 10 µM | > 10 µM |
| CC(C)(O)C(Cl)(Cl)Cl [chlorobutanol] | 0 | 0 | 0 | 0 | 0 | 95% | 107% | 98.7% | 85.2% | 98.1% | 105% | 107% | 104% | 110% | 98.9% | 99.7% | 101% | 96.5% | 98.3% | 96.5% | 110% | 96.8% | 105% | 96.1% | 110% | 102% | 96.9% | 100% | 102% | 102% | > 10 µM | > 10 µM | > 10 µM | > 10 µM | > 10 µM |
| Nc1nc(=O)c2c([nH]1)NCC(CNc1ccc(C(=O)N[C@@H](CCC(=O)O)C(=O)O)cc1)N2C=O (stereo not given in full) [leucovorin] | 0 | 0 | 0 | 0 | 0 | 92 ± 1.3% | 94.5 ± 6.2% | 89.6 ± 2.3% | 100.3 ± 0.92% | 100 ± 2% | 103 ± 15% | 96.9 ± 7.9% | 97.45 ± 0.78% | 99.3 ± 1.7% | 105 ± 7.5% | 108% | 98.9% | 98.1% | 95.6% | 99.2% | 116% | 96.5% | 100% | 108% | 97.5% | 101 ± 3.2% | 98.2 ± 5.1% | 104 ± 1.4% | 97.2 ± 2% | 101 ± 6.8% | > 10 µM | > 10 µM | > 10 µM | > 10 µM | > 10 µM |
| CCOC(=O)[C@H](CCc1ccccc1)N[C@@H](C)C(=O)N1Cc2ccccc2C[C@H]1C(=O)O [quinapril] | 0 | 0 | 0 | 0 | 0 | 95.7% | 99.6% | 92.1% | 96.3% | 88.5% | 95.2% | 102% | 103% | 97% | 96.5% | 98.1% | 100% | 95.1% | 101% | 93.9% | 106% | 98.9% | 110% | 93.6% | 94.7% | 104% | 97.9% | 102% | 90.4% | 97.8% | > 10 µM | > 10 µM | > 10 µM | > 10 µM | > 10 µM |
| O=[N+]([O-])c1ccc2nc(COCc3nc4ccc([N+](=O)[O-])cc4[nH]3)[nH]c2c1 [VU591] | 0 | 0 | 0 | 0 | 0 | 95.8% | 92.2% | 103% | 84.9% | 92.8% | 94.6% | 95.3% | 101% | 100% | 88.7% | 93.2% | 93.7% | 99.4% | 99% | 97.3% | 94.1% | 95.6% | 96.3% | 96.2% | 102% | 93.4% | 99.1% | 92.2% | 94.6% | 114% | > 10 µM | > 10 µM | > 10 µM | > 10 µM | > 10 µM |
| O=C1Cc2c([nH]c3ccc(Br)cc23)-c2ncccc2N1 [1-azakenpaullone] | 0 | 0 | 0 | 0 | 0 | 98.1% | 99.7% | 95.4% | 109% | 104% | 102% | 94.6% | 101% | 104% | 118% | 99.8% | 95.9% | 99.3% | 98.4% | 96.1% | 89.6% | 96.3% | 92.8% | 104% | 105% | 91.7% | 103% | 96.5% | 101% | 105% | > 10 µM | > 10 µM | > 10 µM | > 10 µM | > 10 µM |

Reference: the supplement of paper PMC13380429
